The record followed here is patent US20100048604A1, “Ligands for Aldoketoreductases” (priority 2004, published 2010).

Common to all, as to experiment: Enzymatic screening of probes 1-7 against a panel of oxidoreductases
What all share (assay type): biochemical
Conditions in all cases: 12 hour incubation, 30-50 μM substrate, pH 7, 250 μM NAD(P)H

Experiment [1] has as its target T1, Pseudomonas testosteroni 3α-hydroxysteroid dehydrogenase (Comamonas testosteroni, UniProt P80702).
T1 construct: purchased Sigma (St. Louis, Mo.) Lot Number 053K8624 (catalogue number not given)
On the procedure: (§1) FIG. 4. Screening of probes 1-7 against a panel of oxidoreductases Percentage fluorescence increase after 12 hour incubation of 30-50 μM substrate, 100 mM phosphate buffer (pH 7), 250 μM NAD(P)H, and 100 nM enzyme. Substrates 1, 2, 3, and 4 monitored at λexc=340 nm, λem=440 nm. Substrates 5, 6, and 7 monitored at λexc=440 nm, λem=510 nm. 3HSD, 3α-hydroxysteroid dehydrogenase (PT, Pseudomonas testosteroni), HLAD, horse liver alcohol dehydrogenase, TBAD, Thermoanaerobium brockii alcohol dehydrogenase, BS 12HSD, Bacillus sp. 12α-hydroxysteroid dehydrogenase, ABAD, amyloid-β binding alcohol dehydrogenase (human), GDH, glycerol dehydrogenase, YADH, yeast alcohol dehydrogenase, LDH, lactate dehydrogenase.
(§2) Probes 1-7 (see FIG. 3) were subsequently tested against a collection of dehydrogenases in the presence of NAD(P)H; the extent of reduction was assessed by the measurement of fluorescence intensity at the emission maximum of each probe (FIG. 4). This assay included enzymes from two major oxidoreductase superfamilies, the short chain alcohol dehydrogenases (SDR) and the aldo-keto reductases (AKR), ranging from bacterial to mammalian and human enzymes.
(§3) Horse Liver alcohol dehydrogenase (Lot Number 51K7520), Thermoanaerobium brockii NADP^+ dependent alcohol dehydrogenase (Lot Number 033K4093), Pseudomonas testosteroni 3α-hydroxysteroid dehydrogenase (Lot Number 053K8624), and Bacillus sphaericus 12α-hydroxysteroid dehydrogenase (Lot Number 70K16621) were purchased from Sigma (St. Louis, Mo.). Yeast alcohol dehydrogenase (Lot Number 93122920), glycerol dehydrogenase (Lot Number 92110122), (D)-lactate dehydrogenase (Lot Number 92419236), (L)-lactate dehydrogenase (Lot Number 92801821), NAD^+, NADP^+, NADH, and NADPH were purchased from Roche. Enzyme activity was confirmed by compliance to supplier's quality control assays prior to usage. Rat and human 3α-hydroxysteroid dehydrogenases were provided by Professor Trevor Penning (University of Pennsylvania School of Medicine) and human amyloid-β peptide binding alcohol dehydrogenase was supplied by Professor Shi Du Yan (Columbia University School for Physicians and Surgeons).
(§4) Enzymatic assays were performed in triplicate on selected fluorogenic substrates according to the following protocol. To each well of a FALCON 96-well black flat bottom plate was added (1) 40 μL of 500 mM potassium phosphate buffer pH 7.0, (2) 113 μL of double deionized water, (3) 25 μL of 2 mM NADH (except for Pseudomonas testosteroni 3α-hydroxysteroid dehydrogenase, rat 3α-hydroxysteroid dehydrogenase, and Thermoanaerobium brockii NADP^+ dependent alcohol dehydrogenase, in which cases 2 mM of NADPH was used), (4) 2 μL of a 3-5 mM solution of substrate in DMSO, and (5) 20 μL of a 40-50 μg/mL solution of enzyme. Reaction volumes were mixed thoroughly after addition of cofactor, substrate, and enzyme and allowed to react 12 hours at 25° C. Scanning of the 96-well plate was performed by the MicroMax 384 connected to a Jobin Yvon Fluorolog through F-3000 fiber optic cables.
(§5) Initial Screening with Fluorogenic Substrates: Screening of the first fluorogenic substrates for enzymatic activity has been described above. In short, 200 μL enzymatic assay volumes containing 100 mM potassium phosphate buffer (pH 7), 250 μM NAD(P)H cofactor, and 30-50 μM of ketones (1-7) were incubated for 12 hours on a black FALCON 96-well plate. Formation of the alcohol reduction product was determined by reading the fluorescence arising from excitation at the corresponding alcohol at either 340 nm (27-30) or 440 nm (31-33).

For experiment [2], the target named is T2, Thermoanaerobium brockii alcohol dehydrogenase (TBAD) (Thermoanaerobacter brockii, UniProt P14941).
T2 construct: purchased Sigma (St. Louis, Mo.) Lot Number 033K4093 (catalogue number not given)
T2 sequence (P14941 1-352): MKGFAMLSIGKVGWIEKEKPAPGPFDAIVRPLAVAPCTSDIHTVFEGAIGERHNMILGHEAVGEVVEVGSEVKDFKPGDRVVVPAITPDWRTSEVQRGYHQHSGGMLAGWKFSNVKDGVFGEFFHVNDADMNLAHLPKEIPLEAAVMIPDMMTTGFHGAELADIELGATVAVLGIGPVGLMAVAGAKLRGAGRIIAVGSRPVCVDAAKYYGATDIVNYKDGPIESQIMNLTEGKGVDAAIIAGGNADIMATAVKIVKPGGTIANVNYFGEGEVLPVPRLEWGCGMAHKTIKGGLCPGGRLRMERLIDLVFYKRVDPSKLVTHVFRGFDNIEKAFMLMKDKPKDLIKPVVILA
On the procedure:
as §1, §2, §3, §4, §5

The target of experiment [3] is T3, horse liver alcohol dehydrogenase (HLAD) (Equus caballus, UniProt P00327).
T3 construct: purchased Sigma (St. Louis, Mo.) Lot Number 51K7520 (catalogue number not given)
T3 sequence (P00327 2-375 limits assumed): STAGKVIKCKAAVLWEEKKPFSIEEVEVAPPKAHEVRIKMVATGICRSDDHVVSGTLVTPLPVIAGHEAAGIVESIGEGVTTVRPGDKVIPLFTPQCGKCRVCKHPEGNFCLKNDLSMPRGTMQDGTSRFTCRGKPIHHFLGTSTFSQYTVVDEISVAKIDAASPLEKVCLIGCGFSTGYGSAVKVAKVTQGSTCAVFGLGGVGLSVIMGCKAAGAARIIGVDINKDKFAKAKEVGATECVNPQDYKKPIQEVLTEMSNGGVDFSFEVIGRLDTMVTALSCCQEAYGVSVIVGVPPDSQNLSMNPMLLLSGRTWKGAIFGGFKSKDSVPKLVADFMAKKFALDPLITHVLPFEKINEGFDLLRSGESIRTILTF
The procedure:
as §1, §2, §3, §4, §5

The target of experiment [4] is T4, rat 3α-hydroxysteroid dehydrogenase (Rattus norvegicus, UniProt P23457).
T4 construct: gift of Professor Trevor Penning (University of Pennsylvania School of Medicine)
T4 sequence (P23457 1-322): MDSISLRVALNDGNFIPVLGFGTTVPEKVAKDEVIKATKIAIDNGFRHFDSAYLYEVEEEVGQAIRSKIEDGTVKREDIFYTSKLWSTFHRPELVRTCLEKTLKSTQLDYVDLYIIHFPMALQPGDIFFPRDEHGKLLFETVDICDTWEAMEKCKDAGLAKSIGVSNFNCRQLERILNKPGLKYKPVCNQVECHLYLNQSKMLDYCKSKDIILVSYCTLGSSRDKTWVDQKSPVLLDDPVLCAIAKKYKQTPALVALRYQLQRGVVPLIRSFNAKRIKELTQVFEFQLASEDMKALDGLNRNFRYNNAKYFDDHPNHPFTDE
On the procedure: as §1, §2, §3, §4, §5

T1 sequence (P80702 whole entry): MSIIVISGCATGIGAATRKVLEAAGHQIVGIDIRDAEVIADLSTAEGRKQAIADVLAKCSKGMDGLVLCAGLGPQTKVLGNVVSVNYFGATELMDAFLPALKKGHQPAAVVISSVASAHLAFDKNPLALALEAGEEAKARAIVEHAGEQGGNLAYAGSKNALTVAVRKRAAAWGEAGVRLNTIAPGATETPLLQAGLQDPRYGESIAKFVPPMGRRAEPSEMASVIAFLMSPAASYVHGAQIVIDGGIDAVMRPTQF

Regarding `CC(=O)c1cc(=O)oc2c3c4c(cc12)CCCN4CCC3` [compound 5, 8-Acetyl-2,3,5,6-tetrahydro-1H,4H-11-oxa-3a-aza-benzo[de]anthracen-10-one], the “reduction of probe (fluorescence increase)” value was “converted rapidly and selectively” in experiment [1]; “not acceptant” in experiment [2]; “not acceptant” in experiment [3]; “converted rapidly and selectively” in experiment [4].
